From paper doi:10.1101/2024.02.23.581731v1 (biorxiv, 2024) come the findings set out here.

What all share (format): cell-based
In test [1] the target is T1, h5-HT3AR (Homo sapiens, UniProt P46098).
T1 sequence (P46098 24-478): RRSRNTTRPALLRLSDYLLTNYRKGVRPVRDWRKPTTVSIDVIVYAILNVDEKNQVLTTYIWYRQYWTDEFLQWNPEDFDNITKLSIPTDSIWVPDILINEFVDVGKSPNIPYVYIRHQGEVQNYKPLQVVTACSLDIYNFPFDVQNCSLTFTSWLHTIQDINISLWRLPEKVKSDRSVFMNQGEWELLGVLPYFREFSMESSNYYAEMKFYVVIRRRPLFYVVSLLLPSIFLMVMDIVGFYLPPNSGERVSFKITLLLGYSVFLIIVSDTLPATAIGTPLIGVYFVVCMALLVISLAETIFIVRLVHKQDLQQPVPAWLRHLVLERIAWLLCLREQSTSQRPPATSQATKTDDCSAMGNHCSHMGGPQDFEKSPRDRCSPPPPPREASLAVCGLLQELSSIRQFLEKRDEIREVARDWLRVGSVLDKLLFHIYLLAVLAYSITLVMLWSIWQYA
The test can be described thus: TEVC, Xenopus oocytes, activation.

The target of test [2] is T2, h5-HT3AR (Homo sapiens, UniProt P46098, M223I).
T2 sequence (P46098 24-478 M223I): T1 sequence (P46098 24-478) with M200I
The test is described as follows: FLIPR Blue membrane potential assay, inhibition of 5-HT response.

Test [3] has as its target T3, h5-HT3AR (Homo sapiens, UniProt P46098, Y228S).
T3 sequence (P46098 24-478 Y228S): T1 sequence (P46098 24-478) with Y205S
The test is described as above.

For test [4], the target named is T4, h5-HT3AR (Homo sapiens, UniProt P46098, M204I).
T4 sequence (P46098 24-478 M204I): T1 sequence (P46098 24-478) with M181I
Described as above.

Test [5] deals with T5, h5-HT3AR (Homo sapiens, UniProt P46098, S225T).
T5 sequence (P46098 24-478 S225T): T1 sequence (P46098 24-478) with S202T
The description is as above.

The target in test [6] is T6, r5-HT3AR (Rattus norvegicus, UniProt P35563).
T6 sequence (P35563 24-483): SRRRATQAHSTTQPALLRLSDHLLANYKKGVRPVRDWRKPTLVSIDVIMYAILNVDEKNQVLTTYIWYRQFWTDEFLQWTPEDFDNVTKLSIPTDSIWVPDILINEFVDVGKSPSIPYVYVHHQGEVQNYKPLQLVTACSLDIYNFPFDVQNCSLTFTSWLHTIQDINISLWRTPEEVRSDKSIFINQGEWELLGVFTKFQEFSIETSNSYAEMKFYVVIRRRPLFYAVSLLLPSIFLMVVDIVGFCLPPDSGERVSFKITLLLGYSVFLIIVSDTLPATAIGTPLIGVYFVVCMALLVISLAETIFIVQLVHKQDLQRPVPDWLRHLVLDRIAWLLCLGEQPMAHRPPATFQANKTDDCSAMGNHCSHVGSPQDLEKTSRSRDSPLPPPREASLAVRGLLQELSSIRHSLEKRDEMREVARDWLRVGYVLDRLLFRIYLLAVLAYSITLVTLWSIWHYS
Described as above.

Where a chain is given by its changes, count along the chain named.

As for `Cc1ccc(Sc2ccccc2N2CCNCC2)c(C)c1` [vortioxetine], a half-maximal response in test [1] (EC50) required 0.15 µM. Moreover, the IC50 (in general, the concentration that gives 50% inhibition) was 0.02 µM in test [2]; 0.084 µM in test [3]; 0.073 µM in test [4]; 0.058 µM in test [5]; 0.026 µM in test [6].
